Test results published in ChEMBL document CHEMBL3046673, “Synthesis and herbicidal activities of novel 4-(4-(5-methyl-3-arylisoxazol-4-yl)thiazol-2-yl)piperidyl carboxamides and thiocarboxamides” (Molecules, 2009).

Columns and labels:
Format in all cases: functional
Details in all cases: 120 h, read-out: GI
Echinochloa crus-galli [1] = test: Herbicidal activity against Echinochloa crus-galli (barnyard grass) assessed as inhibition of root growth at 10 mg/L using pre-emergence exposure protocol after 5 days
Brassica napus [2] = test: Herbicidal activity against Brassica napus (oilseed rape) assessed as inhibition of stalk growth at 10 mg/L using pre-emergence exposure protocol after 5 days
Echinochloa crus-galli [3] = test: Herbicidal activity against Echinochloa crus-galli (barnyard grass) assessed as inhibition of stalk growth at 100 mg/L using pre-emergence exposure protocol after 5 days
Brassica napus [4] = test: Herbicidal activity against Brassica napus (oilseed rape) assessed as inhibition of stalk growth at 100 mg/L using pre-emergence exposure protocol after 5 days
Brassica napus [5] = test: Herbicidal activity against Brassica napus (oilseed rape) assessed as inhibition of root growth at 100 mg/L using pre-emergence exposure protocol after 5 days
Echinochloa crus-galli [6] = test: Herbicidal activity against Echinochloa crus-galli (barnyard grass) assessed as inhibition of stalk growth at 10 mg/L using pre-emergence exposure protocol after 5 days
Echinochloa crus-galli [7] = test: Herbicidal activity against Echinochloa crus-galli (barnyard grass) assessed as inhibition of root growth at 100 mg/L using pre-emergence exposure protocol after 5 days
Brassica napus [8] = test: Herbicidal activity against Brassica napus (oilseed rape) assessed as inhibition of root growth at 10 mg/L using pre-emergence exposure protocol after 5 days

SMILES	inhibition of growth at 10 µg/mL (Echinochloa crus-galli [1])	inhibition of growth at 10 µg/mL (Brassica napus [2])	inhibition of growth at 100 µg/mL (Echinochloa crus-galli [3])	inhibition of growth at 100 µg/mL (Brassica napus [4])	inhibition of growth at 100 µg/mL (Brassica napus [5])	inhibition of growth at 10 µg/mL (Echinochloa crus-galli [6])	inhibition of growth at 100 µg/mL (Echinochloa crus-galli [7])	inhibition of growth at 10 µg/mL (Brassica napus [8])
COc1ccc(-c2noc(C)c2-c2csc(C3CCN(C(=O)Nc4ccc(F)cc4)CC3)n2)cc1	59.1%	14.3%	37%	53.6%	81.3%	34.8%	86.4%	46.9%
Cc1onc(-c2ccccc2)c1-c1csc(C2CCN(C(=O)Nc3ccc(F)cc3)CC2)n1	54.8%	0%	17.7%	31.8%	85.4%	0%	87.1%	66.3%
Cc1onc(-c2ccc(F)cc2)c1-c1csc(C2CCN(C(=O)Nc3ccc(F)cc3)CC2)n1	35.5%	6.7%	52.3%	56.7%	76.1%	50%	74.2%	35.8%
Cc1onc(-c2ccccc2F)c1-c1csc(C2CCN(C(=O)Nc3ccc(F)cc3)CC2)n1	64.5%	16.7%	63.6%	66.7%	96.6%	56.8%	80.6%	52.3%
Cc1onc(-c2ccc(Cl)cc2Cl)c1-c1csc(C2CCN(C(=O)Nc3ccc(F)cc3)CC2)n1	32.3%	20.2%	63.6%	70%	90.3%	45.5%	83.8%	34.9%
Cc1onc(-c2ccc(F)cc2)c1-c1csc(C2CCN(C(=O)NC(C)C)CC2)n1	54.8%	46.7%	63.6%	66.7%	87.2%	47.7%	83.9%	68.8%
CCCCNC(=O)N1CCC(c2nc(-c3c(-c4ccc(F)cc4)noc3C)cs2)CC1	71%	40%	63.6%	70%	88.1%	56.8%	87.1%	67.8%
Cc1onc(-c2ccc(F)cc2)c1-c1csc(C2CCN(C(=O)Nc3ccccc3)CC2)n1	65.9%	25%	56.5%	53.6%	83.3%	39.1%	95.5%	46.9%
Cc1onc(-c2ccc(F)cc2)c1-c1csc(C2CCN(C(=S)Nc3ccccc3)CC2)n1	48.4%	6.7%	63.6%	53.3%	90.1%	43.2%	87.1%	54.1%
Cc1onc(-c2ccccc2F)c1-c1csc(C2CCN(C(=O)NC(C)C)CC2)n1	56.5%	22.7%	14.6%	54.5%	83.1%	22%	73.9%	68.5%
CCCCNC(=O)N1CCC(c2nc(-c3c(-c4ccccc4F)noc3C)cs2)CC1	58.1%	43.3%	63.6%	70%	86.2%	61.4%	90.3%	61.5%
Cc1onc(-c2ccccc2F)c1-c1csc(C2CCN(C(=O)Nc3ccccc3)CC2)n1	56.5%	31.8%	39%	72.7%	91.2%	17.1%	84.8%	56.2%
Cc1onc(-c2ccccc2F)c1-c1csc(C2CCN(C(=S)Nc3ccccc3)CC2)n1	48.4%	43.3%	59.1%	60%	92.7%	45.5%	83.9%	64.2%
Cc1onc(-c2ccccc2)c1-c1csc(C2CCN(C(=O)Nc3ccccc3)CC2)n1	52%	30%	63.6%	70%	80.4%	52.3%	78.3%	51.4%
COc1ccc(-c2noc(C)c2-c2csc(C3CCN(C(=O)Nc4ccccc4)CC3)n2)cc1	45.7%	-22.7%	24.6%	4.5%	43.8%	-22%	76.1%	20.2%
